Assays:
Type in all cases: cell-based
Settings in all cases: compounds at 50 nM and 500 nM, 24 hours
[1] = target: T1, WEE1 (Homo sapiens, UniProt P30291+Q96SW2); test: Western-blot assay, substrate protein degradation in hPBMCs: WEE1
T1 construct: effects of the compounds of the present disclosure on the expression of target proteins in cells; endogenous in cells; host or cells: human PBMCs (hPBMCs)

[2] = target: T2, IKZF1 (Homo sapiens, UniProt Q13422+Q96SW2); test: Western-blot assay, substrate protein degradation in hPBMCs: IKZF1
T2 construct: effects of the compounds of the present disclosure on the expression of target proteins in cells; endogenous in cells; host or cells: human PBMCs (hPBMCs)

[3] = target: T3, IKZF2 (Homo sapiens, UniProt Q96SW2+Q9UKS7); test: Western-blot assay, substrate protein degradation in hPBMCs: IKZF2
T3 construct: effects of the compounds of the present disclosure on the expression of target proteins in cells; endogenous in cells; host or cells: human PBMCs (hPBMCs)

[4] = target: T4, IKZF3 (Homo sapiens, UniProt Q96SW2+Q9UKT9); test: Western-blot assay, substrate protein degradation in hPBMCs: IKZF3
T4 construct: effects of the compounds of the present disclosure on the expression of target proteins in cells; endogenous in cells; host or cells: human PBMCs (hPBMCs)

[5] = target: T5, CK1α (Homo sapiens, UniProt P48729+Q96SW2); test: Western-blot assay, substrate protein degradation in hPBMCs: CK1α
T5 construct: effects of the compounds of the present disclosure on the expression of target proteins in cells; endogenous in cells; host or cells: human PBMCs (hPBMCs)

[6] = target: T6, GSPT1 (Homo sapiens, UniProt P15170+Q96SW2); test: Western-blot assay, substrate protein degradation in hPBMCs: GSPT1
T6 construct: effects of the compounds of the present disclosure on the expression of target proteins in cells; endogenous in cells; host or cells: human PBMCs (hPBMCs)
T6 sequence (P15170 whole entry): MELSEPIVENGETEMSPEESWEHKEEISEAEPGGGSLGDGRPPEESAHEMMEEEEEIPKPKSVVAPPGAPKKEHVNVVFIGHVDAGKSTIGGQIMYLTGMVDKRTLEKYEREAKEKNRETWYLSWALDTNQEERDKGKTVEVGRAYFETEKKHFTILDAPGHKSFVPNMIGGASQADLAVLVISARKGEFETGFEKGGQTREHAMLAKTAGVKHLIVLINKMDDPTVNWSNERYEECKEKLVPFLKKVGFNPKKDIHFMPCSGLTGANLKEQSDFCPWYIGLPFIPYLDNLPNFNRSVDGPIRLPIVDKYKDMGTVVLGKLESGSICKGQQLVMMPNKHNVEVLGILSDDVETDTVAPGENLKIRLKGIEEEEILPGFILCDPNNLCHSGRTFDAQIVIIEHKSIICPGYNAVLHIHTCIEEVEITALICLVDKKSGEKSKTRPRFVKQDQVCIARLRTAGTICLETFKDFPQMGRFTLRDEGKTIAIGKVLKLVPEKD
T6 sequence (Q96SW2 whole entry): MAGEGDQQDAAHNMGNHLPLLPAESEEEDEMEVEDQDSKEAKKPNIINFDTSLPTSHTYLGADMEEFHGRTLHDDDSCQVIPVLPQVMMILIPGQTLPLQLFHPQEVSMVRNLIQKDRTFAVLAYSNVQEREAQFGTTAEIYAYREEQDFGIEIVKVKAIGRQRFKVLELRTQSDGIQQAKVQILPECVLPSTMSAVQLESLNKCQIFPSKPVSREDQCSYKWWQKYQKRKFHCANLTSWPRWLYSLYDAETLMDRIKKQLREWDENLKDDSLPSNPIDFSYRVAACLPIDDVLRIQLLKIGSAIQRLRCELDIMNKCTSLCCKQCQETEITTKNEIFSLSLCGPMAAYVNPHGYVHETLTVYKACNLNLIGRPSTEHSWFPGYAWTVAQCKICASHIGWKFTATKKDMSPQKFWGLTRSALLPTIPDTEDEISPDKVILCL
T6 sequence (Q16531 whole entry partner): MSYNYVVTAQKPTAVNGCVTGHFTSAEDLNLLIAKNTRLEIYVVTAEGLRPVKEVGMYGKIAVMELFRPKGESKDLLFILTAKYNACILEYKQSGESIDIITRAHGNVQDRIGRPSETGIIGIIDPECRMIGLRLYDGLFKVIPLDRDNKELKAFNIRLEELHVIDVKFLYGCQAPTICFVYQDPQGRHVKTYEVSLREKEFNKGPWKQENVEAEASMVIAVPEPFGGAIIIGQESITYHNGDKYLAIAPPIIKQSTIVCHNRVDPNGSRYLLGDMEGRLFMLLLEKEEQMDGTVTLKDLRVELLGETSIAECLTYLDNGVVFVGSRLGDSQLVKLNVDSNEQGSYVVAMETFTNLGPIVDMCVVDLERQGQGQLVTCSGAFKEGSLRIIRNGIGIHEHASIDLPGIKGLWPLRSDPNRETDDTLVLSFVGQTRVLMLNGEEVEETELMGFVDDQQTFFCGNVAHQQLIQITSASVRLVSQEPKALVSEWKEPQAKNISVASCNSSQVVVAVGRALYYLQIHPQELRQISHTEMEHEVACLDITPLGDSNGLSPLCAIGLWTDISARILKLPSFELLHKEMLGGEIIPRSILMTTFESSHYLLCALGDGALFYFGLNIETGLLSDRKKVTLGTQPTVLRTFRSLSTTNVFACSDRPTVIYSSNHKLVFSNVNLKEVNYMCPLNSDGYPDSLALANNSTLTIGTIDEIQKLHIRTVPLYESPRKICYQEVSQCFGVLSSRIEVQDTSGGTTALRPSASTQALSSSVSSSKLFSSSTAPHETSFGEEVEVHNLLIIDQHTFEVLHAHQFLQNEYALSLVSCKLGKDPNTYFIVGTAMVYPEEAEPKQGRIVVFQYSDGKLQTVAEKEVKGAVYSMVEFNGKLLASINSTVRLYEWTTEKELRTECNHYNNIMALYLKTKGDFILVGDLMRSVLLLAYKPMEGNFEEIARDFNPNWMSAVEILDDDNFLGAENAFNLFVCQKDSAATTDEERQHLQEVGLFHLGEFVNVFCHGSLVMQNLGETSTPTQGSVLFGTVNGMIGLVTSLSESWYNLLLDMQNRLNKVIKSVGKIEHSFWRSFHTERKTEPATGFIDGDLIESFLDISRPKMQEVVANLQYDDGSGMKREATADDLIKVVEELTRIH

T2 sequence (Q13422 whole entry): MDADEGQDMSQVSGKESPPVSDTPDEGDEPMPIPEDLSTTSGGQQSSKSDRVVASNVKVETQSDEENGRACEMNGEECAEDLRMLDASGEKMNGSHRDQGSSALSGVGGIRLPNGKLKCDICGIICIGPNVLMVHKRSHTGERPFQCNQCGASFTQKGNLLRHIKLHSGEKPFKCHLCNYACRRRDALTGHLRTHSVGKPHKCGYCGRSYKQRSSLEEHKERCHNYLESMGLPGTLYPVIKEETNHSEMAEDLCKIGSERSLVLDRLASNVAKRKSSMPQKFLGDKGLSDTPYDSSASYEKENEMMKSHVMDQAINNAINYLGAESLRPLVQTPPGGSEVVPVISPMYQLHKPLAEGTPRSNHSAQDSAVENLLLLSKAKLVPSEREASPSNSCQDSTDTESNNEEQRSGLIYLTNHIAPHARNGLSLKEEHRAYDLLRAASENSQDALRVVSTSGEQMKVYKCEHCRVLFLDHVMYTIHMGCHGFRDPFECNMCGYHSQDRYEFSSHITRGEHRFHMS
T2 sequence (Q96SW2 whole entry): as the sequence (Q96SW2 whole entry) above
T2 sequence (Q16531 whole entry partner): as the sequence (Q16531 whole entry partner) above
T4 sequence (Q9UKT9 whole entry): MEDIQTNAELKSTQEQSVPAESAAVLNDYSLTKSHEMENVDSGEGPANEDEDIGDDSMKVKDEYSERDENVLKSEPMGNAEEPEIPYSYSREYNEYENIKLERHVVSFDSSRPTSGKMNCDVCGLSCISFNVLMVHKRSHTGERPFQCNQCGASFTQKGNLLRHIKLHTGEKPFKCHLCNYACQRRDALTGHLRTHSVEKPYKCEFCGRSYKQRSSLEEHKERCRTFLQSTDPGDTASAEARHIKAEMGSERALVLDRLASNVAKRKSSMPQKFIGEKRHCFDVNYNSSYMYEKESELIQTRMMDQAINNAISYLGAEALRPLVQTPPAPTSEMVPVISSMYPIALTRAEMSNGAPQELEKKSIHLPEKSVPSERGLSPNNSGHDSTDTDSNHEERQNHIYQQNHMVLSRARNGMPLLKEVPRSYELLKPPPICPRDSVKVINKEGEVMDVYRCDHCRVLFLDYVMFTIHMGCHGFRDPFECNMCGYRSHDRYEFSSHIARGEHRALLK
T4 sequence (Q96SW2 whole entry): as the sequence (Q96SW2 whole entry) above
T4 sequence (Q16531 whole entry partner): as the sequence (Q16531 whole entry partner) above
T5 sequence (P48729 whole entry): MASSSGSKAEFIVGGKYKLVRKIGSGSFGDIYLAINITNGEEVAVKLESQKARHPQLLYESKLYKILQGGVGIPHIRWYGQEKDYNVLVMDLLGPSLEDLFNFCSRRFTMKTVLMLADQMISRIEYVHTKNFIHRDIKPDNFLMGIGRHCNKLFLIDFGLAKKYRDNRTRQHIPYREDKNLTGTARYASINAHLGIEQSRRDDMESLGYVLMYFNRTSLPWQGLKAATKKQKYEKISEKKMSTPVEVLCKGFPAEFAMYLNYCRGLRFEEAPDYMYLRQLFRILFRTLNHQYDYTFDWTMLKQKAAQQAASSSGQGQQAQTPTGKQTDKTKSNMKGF
T5 sequence (Q96SW2 whole entry): as the sequence (Q96SW2 whole entry) above
T5 sequence (Q16531 whole entry partner): as the sequence (Q16531 whole entry partner) above
T1 sequence (P30291 whole entry): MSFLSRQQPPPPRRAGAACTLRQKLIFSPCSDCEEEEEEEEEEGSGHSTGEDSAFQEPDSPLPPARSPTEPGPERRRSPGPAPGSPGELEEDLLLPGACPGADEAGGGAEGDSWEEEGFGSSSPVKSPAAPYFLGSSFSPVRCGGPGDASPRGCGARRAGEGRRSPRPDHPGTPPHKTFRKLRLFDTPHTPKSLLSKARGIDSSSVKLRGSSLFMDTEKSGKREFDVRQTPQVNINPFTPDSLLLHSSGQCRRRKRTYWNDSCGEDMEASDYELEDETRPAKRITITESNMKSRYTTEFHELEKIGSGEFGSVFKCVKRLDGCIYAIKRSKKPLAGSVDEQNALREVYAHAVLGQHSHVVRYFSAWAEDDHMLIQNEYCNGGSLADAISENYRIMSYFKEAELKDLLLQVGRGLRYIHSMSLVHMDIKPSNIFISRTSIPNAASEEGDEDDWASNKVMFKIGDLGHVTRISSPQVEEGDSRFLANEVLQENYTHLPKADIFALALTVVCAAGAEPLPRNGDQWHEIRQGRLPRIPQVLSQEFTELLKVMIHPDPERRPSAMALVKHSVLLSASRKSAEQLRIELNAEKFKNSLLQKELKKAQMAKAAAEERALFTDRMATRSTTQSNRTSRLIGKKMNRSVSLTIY
T1 sequence (Q96SW2 whole entry): as the sequence (Q96SW2 whole entry) above
T1 sequence (Q16531 whole entry partner): as the sequence (Q16531 whole entry partner) above

Compound	WEE1 substrate protein remaining % [1]	IKZF1 substrate protein remaining % [2]	IKZF2 substrate protein remaining % [3]	IKZF3 substrate protein remaining % [4]	CK1α substrate protein remaining % [5]	GSPT1 substrate protein remaining % [6]
O=C1CCN(N2C(=O)c3ccc(CN4CCN(c5cccc(F)c5F)CC4)cc3C2=O)C(=O)N1 [GT-06793, 5-((4-(2,3-difluorophenyl)piperazin-1-yl)methyl)-2-(2,4-dioxotetrahydropyrimidin-1(2H)-yl)isoindoline-1,3-dione]	B ("B" is defined as 80%< substrate protein remaining %≤ 100%)	B ("B" is defined as 80%< substrate protein remaining %≤ 100%)	A ("A" is defined as 0% ≤ substrate protein remaining % ≤ 80%)	B ("B" is defined as 80%< substrate protein remaining %≤ 100%)	B ("B" is defined as 80%< substrate protein remaining %≤ 100%)	B ("B" is defined as 80%< substrate protein remaining %≤ 100%)
O=C1CCN(N2C(=O)c3ccc(CN4CCN(c5c(F)cccc5F)CC4)cc3C2=O)C(=O)N1 [GT-06796, 5-((4-(2,6-difluorophenyl)piperazin-1-yl)methyl)-2-(2,4-dioxotetrahydropyrimidin-1(2H)-yl)isoindoline-1,3-dione]	A ("A" is defined as 0% ≤ substrate protein remaining % ≤ 80%)	B ("B" is defined as 80%< substrate protein remaining %≤ 100%)	B ("B" is defined as 80%< substrate protein remaining %≤ 100%)	B ("B" is defined as 80%< substrate protein remaining %≤ 100%)	B ("B" is defined as 80%< substrate protein remaining %≤ 100%)	B ("B" is defined as 80%< substrate protein remaining %≤ 100%)
O=C1CCN(N2C(=O)c3ccc(CN4CCN(c5ccc(F)c(F)c5)CC4)cc3C2=O)C(=O)N1 [GT-06797, 5-((4-(3,4-difluorophenyl)piperazin-1-yl)methyl)-2-(2,4-dioxotetrahydropyrimidin-1(2H)-yl)isoindoline-1,3-dione]	A ("A" is defined as 0% ≤ substrate protein remaining % ≤ 80%)	B ("B" is defined as 80%< substrate protein remaining %≤ 100%)	B ("B" is defined as 80%< substrate protein remaining %≤ 100%)	B ("B" is defined as 80%< substrate protein remaining %≤ 100%)	B ("B" is defined as 80%< substrate protein remaining %≤ 100%)	B ("B" is defined as 80%< substrate protein remaining %≤ 100%)
O=C1CCN(N2C(=O)c3ccc(CN4CCC(c5ccccc5)CC4)cc3C2=O)C(=O)N1 [GT-06803, 2-(2,4-dioxotetrahydropyrimidin-1(2H)-yl)-5-((4-phenylpiperidin-1-yl)methyl)isoindoline-1,3-dione]	B ("B" is defined as 80%< substrate protein remaining %≤ 100%)	B ("B" is defined as 80%< substrate protein remaining %≤ 100%)	B ("B" is defined as 80%< substrate protein remaining %≤ 100%)	B ("B" is defined as 80%< substrate protein remaining %≤ 100%)	A ("A" is defined as 0% ≤ substrate protein remaining % ≤ 80%)	B ("B" is defined as 80%< substrate protein remaining %≤ 100%)
O=C1CCN(N2C(=O)c3ccc(CN4CCC(c5cccc(Br)c5)CC4)cc3C2=O)C(=O)N1 [GT-06804, 5-((4-(3-bromophenyl)piperidin-1-yl)methyl)-2-(2,4-dioxotetrahydropyrimidin-1(2H)-yl)isoindoline-1,3-dione]	B ("B" is defined as 80%< substrate protein remaining %≤ 100%)	B ("B" is defined as 80%< substrate protein remaining %≤ 100%)	B ("B" is defined as 80%< substrate protein remaining %≤ 100%)	B ("B" is defined as 80%< substrate protein remaining %≤ 100%)	A ("A" is defined as 0% ≤ substrate protein remaining % ≤ 80%)	B ("B" is defined as 80%< substrate protein remaining %≤ 100%)
O=C1CCN(N2C(=O)c3ccc(CN4CCC(c5ccc(Br)cc5)CC4)cc3C2=O)C(=O)N1 [GT-06805, 5-((4-(4-bromophenyl)piperidin-1-yl)methyl)-2-(2,4-dioxotetrahydropyrimidin-1(2H)-yl)isoindoline-1,3-dione]	B ("B" is defined as 80%< substrate protein remaining %≤ 100%)	B ("B" is defined as 80%< substrate protein remaining %≤ 100%)	B ("B" is defined as 80%< substrate protein remaining %≤ 100%)	B ("B" is defined as 80%< substrate protein remaining %≤ 100%)	A ("A" is defined as 0% ≤ substrate protein remaining % ≤ 80%)	B ("B" is defined as 80%< substrate protein remaining %≤ 100%)
O=C1CCN(N2C(=O)c3ccc(CN4CCC(c5ccccc5F)CC4)cc3C2=O)C(=O)N1 [GT-06877, 2-(2,4-dioxotetrahydropyrimidin-1(2H)-yl)-5-((4-(2-fluorophenyl)piperidin-1-yl)methyl)isoindoline-1,3-dione]	B ("B" is defined as 80%< substrate protein remaining %≤ 100%)	B ("B" is defined as 80%< substrate protein remaining %≤ 100%)	B ("B" is defined as 80%< substrate protein remaining %≤ 100%)	B ("B" is defined as 80%< substrate protein remaining %≤ 100%)	A ("A" is defined as 0% ≤ substrate protein remaining % ≤ 80%)	B ("B" is defined as 80%< substrate protein remaining %≤ 100%)
O=C1CCN(N2C(=O)c3ccc(CN4CCC(c5ccc(F)cc5)CC4)cc3C2=O)C(=O)N1 [GT-06878, 2-(2,4-dioxotetrahydropyrimidin-1(2H)-yl)-5-((4-(4-fluorophenyl)piperidin-1-yl)methyl)isoindoline-1,3-dione]	B ("B" is defined as 80%< substrate protein remaining %≤ 100%)	B ("B" is defined as 80%< substrate protein remaining %≤ 100%)	B ("B" is defined as 80%< substrate protein remaining %≤ 100%)	B ("B" is defined as 80%< substrate protein remaining %≤ 100%)	A ("A" is defined as 0% ≤ substrate protein remaining % ≤ 80%)	A ("A" is defined as 0% ≤ substrate protein remaining % ≤ 80%)
O=C1CCN(N2C(=O)c3ccc(CN4CCC(c5ccccc5C(F)(F)F)CC4)cc3C2=O)C(=O)N1 [GT-06879, 2-(2,4-dioxotetrahydropyrimidin-1(2H)-yl)-5-((4-(2-(trifluoromethyl)phenyl)piperidin-1-yl)methyl)isoindoline-1,3-dione]	B ("B" is defined as 80%< substrate protein remaining %≤ 100%)	B ("B" is defined as 80%< substrate protein remaining %≤ 100%)	B ("B" is defined as 80%< substrate protein remaining %≤ 100%)	B ("B" is defined as 80%< substrate protein remaining %≤ 100%)	B ("B" is defined as 80%< substrate protein remaining %≤ 100%)	A ("A" is defined as 0% ≤ substrate protein remaining % ≤ 80%)
O=C1CCN(N2C(=O)c3ccc(CN4CCC(c5cccc(C(F)(F)F)c5)CC4)cc3C2=O)C(=O)N1 [GT-06880, 2-(2,4-dioxotetrahydropyrimidin-1(2H)-yl)-5-((4-(3-(trifluoromethyl)phenyl)piperidin-1-yl)methyl)isoindoline-1,3-dione]	A ("A" is defined as 0% ≤ substrate protein remaining % ≤ 80%)	B ("B" is defined as 80%< substrate protein remaining %≤ 100%)	B ("B" is defined as 80%< substrate protein remaining %≤ 100%)	B ("B" is defined as 80%< substrate protein remaining %≤ 100%)	B ("B" is defined as 80%< substrate protein remaining %≤ 100%)	B ("B" is defined as 80%< substrate protein remaining %≤ 100%)

Reference: EP4722207A1, “OXOISOINDOLINYL-SUBSTITUTED TETRAHYDROPYRIMIDINEDIONE DERIVATIVE AND USE THEREOF” (Gluetacs Therapeutics (Shanghai) Co., Ltd., priority 2023, dated 2024)
